Measured values reported in patent US10750743B2, “Pyridazinone herbicides” (E.I. DU PONT DE NEMOURS AND COMPANY, priority 2015, dated 2020).

Tests used:
Assay type in all cases: in vivo
[1] = test system: wheat (Triticum aestivum); assay: Test A postemergence application, visual injury rating; conditions: 0 to 100 scale, 0 no effect, 100 complete control
Excerpt: (§1) Seeds of plant species selected from barnyardgrass (Echinochloa crus-galli), kochia (Kochia scoparia), ragweed (common ragweed, Ambrosia elatior), ryegrass, It. (Italian ryegrass, Lolium multiflorum), foxtail, giant (giant foxtail, Setaria faberii), and pigweed (Amaranthus retroflexus), were planted into a blend of loam soil and sand and treated preemergence with a directed soil spray using test chemicals formulated in a non-phytotoxic solvent mixture which included a surfactant.
(§2) At the same time, plants selected from these weed species and also wheat (Triticum aestivum), corn (Zea mays), blackgrass (Alopecurus myosuroides), and galium (catchweed bedstraw, Galium aparine), were planted in pots containing the same blend of loam soil and sand and treated with postemergence applications of test chemicals formulated in the same manner Plants ranged in height from 2 to 10 cm and were in the one- to two-leaf stage for the postemergence treatment. Treated plants and untreated controls were maintained in a greenhouse for approximately 10 d, after which time all treated plants were compared to untreated controls and visually evaluated for injury. Plant response ratings, summarized in Table A, are based on a 0 to 100 scale where 0 is no effect and 100 is complete control. A dash (-) response means no test result.

[2] = test system: kochia (Kochia scoparia); assay: as above; conditions: 0 to 100 scale, 0 no effect, 100 complete control
Excerpt: as §1, §2

[3] = test system: blackgrass (Alopecurus myosuroides); assay: as above; conditions: 0 to 100 scale, 0 no effect, 100 complete control
Excerpt: as §1, §2

[4] = test system: ryegrass, It. (Italian ryegrass, Lolium multiflorum); assay: as above; conditions: 0 to 100 scale, 0 no effect, 100 complete control
Excerpt: as §1, §2

[5] = test system: barnyardgrass (Echinochloa crus-galli); assay: as above; conditions: 0 to 100 scale, 0 no effect, 100 complete control
Excerpt: as §1, §2

[6] = test system: corn (Zea mays); assay: as above; conditions: 0 to 100 scale, 0 no effect, 100 complete control
Excerpt: as §1, §2

[7] = test system: pigweed (Amaranthus retroflexus); assay: as above; conditions: 0 to 100 scale, 0 no effect, 100 complete control
Excerpt: as §1, §2

[8] = test system: galium (catchweed bedstraw, Galium aparine); assay: as above; conditions: 0 to 100 scale, 0 no effect, 100 complete control
Excerpt: as §1, §2

[9] = test system: ragweed (common ragweed, Ambrosia elatior); assay: as above; conditions: 0 to 100 scale, 0 no effect, 100 complete control
Excerpt: as §1, §2

[10] = test system: foxtail, giant (giant foxtail, Setaria faberii); assay: as above; conditions: 0 to 100 scale, 0 no effect, 100 complete control
Excerpt: as §1, §2

[11] = test system: kochia (Kochia scoparia); assay: Test A preemergence, directed soil spray, visual injury rating; conditions: 0 is no effect, 100 is complete control
Excerpt: as §1, §2

[12] = test system: ryegrass, It. (Italian ryegrass, Lolium multiflorum); assay: as above; conditions: 0 is no effect, 100 is complete control
Excerpt: as §1, §2

[13] = test system: barnyardgrass (Echinochloa crus-galli); assay: as above; conditions: 0 is no effect, 100 is complete control
Excerpt: as §1, §2

[14] = test system: pigweed (Amaranthus retroflexus); assay: as above; conditions: 0 is no effect, 100 is complete control
Excerpt: as §1, §2

[15] = test system: ragweed (common ragweed, Ambrosia elatior); assay: as above; conditions: 0 is no effect, 100 is complete control
Excerpt: as §1, §2

[16] = test system: foxtail, giant (giant foxtail, Setaria faberii); assay: as above; conditions: 0 is no effect, 100 is complete control
Excerpt: as §1, §2

[17] = test system: barnyardgrass (Echinochloa crus-galli); assay: Test B flooded paddy test, visual rating; conditions: Flood, 250 g ai/ha, applied to paddy water, rated after 13 to 15 d
Procedure: (§3) Plant species in the flooded paddy test selected from rice (Oryza sativa), sedge, umbrella (small-flower umbrella sedge, Cyperus difformis), ducksalad (Heteranthera limosa), and barnyardgrass (Echinochloa crus-galli) were grown to the 2-leaf stage for testing. At time of treatment, test pots were flooded to 3 cm above the soil surface, treated by application of test compounds directly to the paddy water, and then maintained at that water depth for the duration of the test. Treated plants and controls were maintained in a greenhouse for 13 to 15 d, after which time all species were compared to controls and visually evaluated. Plant response ratings, summarized in Table B, are based on a scale of 0 to 100 where 0 is no effect and 100 is complete control. A dash (-) response means no test result.

[18] = test system: rice (Oryza sativa); assay: Test B flooded paddy test, visual rating; conditions: Flood, 250 g ai/ha, applied to paddy water, rated after 13 to 15 d
Procedure: as §3

[19] = test system: ducksalad (Heteranthera limosa); assay: Test B flooded paddy test, visual rating; conditions: Flood, 250 g ai/ha, applied to paddy water, rated after 13 to 15 d
Procedure: as §3

In the case of `Cc1nn(C)c(=O)c(-c2c(C)sc3ncccc23)c1O` [Compound 14], the “Wheat plant response rating” value ([1]; 125 g ai/ha) was 0, the “Wheat plant response rating” value ([1]; 500 g ai/ha) was 0 and the “Kochia plant response rating” value ([2]; 125 g ai/ha) was 0. For the same molecule, the “Kochia plant response rating” value ([2]; 500 g ai/ha) was 0, the “Blackgrass plant response rating” value ([3]; 125 g ai/ha) was 0 and the “Blackgrass plant response rating” value ([3]; 500 g ai/ha) was 0. For the same molecule, the “Ryegrass, It. plant response rating” value ([4]; 125 g ai/ha) was 0, the “Ryegrass, It. plant response rating” value ([4]; 500 g ai/ha) was 20 and the “Barnyardgrass plant response rating” value ([5]; 125 g ai/ha) was 0. For the same molecule, the “Barnyardgrass plant response rating” value ([5]; 500 g ai/ha) was 0, the “Corn plant response rating” value ([6]; 125 g ai/ha) was 0 and the “Corn plant response rating” value ([6]; 500 g ai/ha) was 0. The “Pigweed plant response rating” value ([7]; 125 g ai/ha) was 0, the “Pigweed plant response rating” value ([7]; 500 g ai/ha) was 0 and the “Galium plant response rating” value ([8]; 125 g ai/ha) was 0. For the same molecule, the “Galium plant response rating” value ([8]; 500 g ai/ha) was 40, the “Ragweed plant response rating” value ([9]; 125 g ai/ha) was 0 and the “Ragweed plant response rating” value ([9]; 500 g ai/ha) was 0. For the same molecule, the “Foxtail, Giant plant response rating” value ([10]; 125 g ai/ha) was 0, the “Foxtail, Giant plant response rating” value ([10]; 500 g ai/ha) was 0 and the “Plant response rating (0 to 100 scale), Kochia” value ([11]; 125 g ai/ha) was 0. The “Plant response rating (0 to 100 scale), Kochia” value ([11]; 500 g ai/ha) was 0, the “Plant response rating (0 to 100 scale), Ryegrass, It.” value ([12]; 125 g ai/ha) was 10 and the “Plant response rating (0 to 100 scale), Ryegrass, It.” value ([12]; 500 g ai/ha) was 20. The “Plant response rating (0 to 100 scale), Barnyardgrass” value ([13]; 125 g ai/ha) was 0, the “Plant response rating (0 to 100 scale), Barnyardgrass” value ([13]; 500 g ai/ha) was 0 and the “Plant response rating (0 to 100 scale), Pigweed” value ([14]; 125 g ai/ha) was 0. For the same molecule, the “Plant response rating (0 to 100 scale), Pigweed” value ([14]; 500 g ai/ha) was 0, the “Plant response rating (0 to 100 scale), Ragweed” value ([15]; 125 g ai/ha) was 0 and the “Plant response rating (0 to 100 scale), Ragweed” value ([15]; 500 g ai/ha) was 0. The “Plant response rating (0 to 100 scale), Foxtail, Giant” value ([16]; 125 g ai/ha) was 0 and the “Plant response rating (0 to 100 scale), Foxtail, Giant” value ([16]; 500 g ai/ha) was 0.
`CCC(=O)Oc1c(C)nn(C)c(=O)c1-c1ccc(Cl)c2sccc12` [Compound 58] was tested, and the “Wheat plant response rating” value ([1]; 31 g ai/ha) was 0, the “Wheat plant response rating” value ([1]; 125 g ai/ha) was 0 and the “Kochia plant response rating” value ([2]; 31 g ai/ha) was 0. The “Kochia plant response rating” value ([2]; 125 g ai/ha) was 60, the “Blackgrass plant response rating” value ([3]; 31 g ai/ha) was 0 and the “Blackgrass plant response rating” value ([3]; 125 g ai/ha) was 0. The “Ryegrass, It. plant response rating” value ([4]; 31 g ai/ha) was 0, the “Ryegrass, It. plant response rating” value ([4]; 125 g ai/ha) was 10 and the “Barnyardgrass plant response rating” value ([5]; 31 g ai/ha) was 0. The “Barnyardgrass plant response rating” value ([5]; 125 g ai/ha) was 0, the “Corn plant response rating” value ([6]; 31 g ai/ha) was 0 and the “Corn plant response rating” value ([6]; 125 g ai/ha) was 0. For the same molecule, the “Pigweed plant response rating” value ([7]; 31 g ai/ha) was 0, the “Pigweed plant response rating” value ([7]; 125 g ai/ha) was 20 and the “Galium plant response rating” value ([8]; 31 g ai/ha) was 20. For the same molecule, the “Galium plant response rating” value ([8]; 125 g ai/ha) was 90, the “Ragweed plant response rating” value ([9]; 31 g ai/ha) was 0 and the “Ragweed plant response rating” value ([9]; 125 g ai/ha) was 0. For the same molecule, the “Foxtail, Giant plant response rating” value ([10]; 31 g ai/ha) was 0, the “Foxtail, Giant plant response rating” value ([10]; 125 g ai/ha) was 0 and the “Barnyardgrass plant response rating (0 to 100 scale, 0 is no effect, 100 is complete control)” value [17] was 0. For the same molecule, the “Rice plant response rating (0 to 100 scale, 0 is no effect, 100 is complete control)” value [18] was 0, the “Ducksalad plant response rating (0 to 100 scale, 0 is no effect, 100 is complete control)” value [19] was 0 and the “Plant response rating (0 to 100 scale), Kochia” value ([11]; 31 g ai/ha) was 0. For the same molecule, the “Plant response rating (0 to 100 scale), Kochia” value ([11]; 125 g ai/ha) was 70, the “Plant response rating (0 to 100 scale), Ryegrass, It.” value ([12]; 31 g ai/ha) was 0 and the “Plant response rating (0 to 100 scale), Ryegrass, It.” value ([12]; 125 g ai/ha) was 50. The “Plant response rating (0 to 100 scale), Barnyardgrass” value ([13]; 31 g ai/ha) was 0, the “Plant response rating (0 to 100 scale), Barnyardgrass” value ([13]; 125 g ai/ha) was 0 and the “Plant response rating (0 to 100 scale), Pigweed” value ([14]; 31 g ai/ha) was 20. For the same molecule, the “Plant response rating (0 to 100 scale), Pigweed” value ([14]; 125 g ai/ha) was 0, the “Plant response rating (0 to 100 scale), Ragweed” value ([15]; 31 g ai/ha) was 0 and the “Plant response rating (0 to 100 scale), Ragweed” value ([15]; 125 g ai/ha) was 80. The “Plant response rating (0 to 100 scale), Foxtail, Giant” value ([16]; 31 g ai/ha) was 20 and the “Plant response rating (0 to 100 scale), Foxtail, Giant” value ([16]; 125 g ai/ha) was 0.
